PubChem BioAssay (NCI)
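Method: 48-hour compound exposure of cells in 96-well plates, five concentrations, linear interpolation of endpoints. Abbreviation: GI50, concentration required for 50% inhibition of growth. Definition used: TGI = concentration required for complete inhibition of growth.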

Legend:
Assay in all cases: NCI-60 cell line screen, 48 h
786-0 renal = tested on: 786-0 renal
A498 renal = tested on: A498 renal
A549 NSCLC = tested on: A549 NSCLC
ACHN renal = tested on: ACHN renal
CAKI-1 renal = tested on: CAKI-1 renal
CCRF-CEM leukemia = tested on: CCRF-CEM leukemia
COLO 205 colon = tested on: COLO 205 colon
DU-145 prostate = tested on: DU-145 prostate
EKVX NSCLC = tested on: EKVX NSCLC
HCC-2998 colon = tested on: HCC-2998 colon
HCT-116 colon = tested on: HCT-116 colon
HCT-15 colon = tested on: HCT-15 colon
HL-60(TB) leukemia = tested on: HL-60(TB) leukemia
HOP-62 NSCLC = tested on: HOP-62 NSCLC
HOP-92 NSCLC = tested on: HOP-92 NSCLC
HT29 colon = tested on: HT29 colon
IGROV1 ovarian = tested on: IGROV1 ovarian
K-562 leukemia = tested on: K-562 leukemia
KM12 colon = tested on: KM12 colon
LOX IMVI melanoma = tested on: LOX IMVI melanoma
M14 melanoma = tested on: M14 melanoma
MALME-3M melanoma = tested on: MALME-3M melanoma
MCF7 breast = tested on: MCF7 breast
MDA-MB-231 breast = tested on: MDA-MB-231 breast
MDA-MB-435 = tested on: MDA-MB-435
MDA-N = tested on: MDA-N
MOLT-4 leukemia = tested on: MOLT-4 leukemia
NCI-H226 lung = tested on: NCI-H226 lung
NCI-H23 lung = tested on: NCI-H23 lung
NCI-H460 lung = tested on: NCI-H460 lung
NCI-H522 lung = tested on: NCI-H522 lung
NCI/ADR-RES ovarian = tested on: NCI/ADR-RES ovarian
OVCAR-3 ovarian = tested on: OVCAR-3 ovarian
OVCAR-4 ovarian = tested on: OVCAR-4 ovarian
OVCAR-5 ovarian = tested on: OVCAR-5 ovarian
OVCAR-8 ovarian = tested on: OVCAR-8 ovarian
PC-3 prostate = tested on: PC-3 prostate
RXF 393 renal = tested on: RXF 393 renal
SF-268 CNS = tested on: SF-268 CNS
SF-295 CNS = tested on: SF-295 CNS
SF-539 CNS = tested on: SF-539 CNS
SK-MEL-28 melanoma = tested on: SK-MEL-28 melanoma
SK-MEL-5 melanoma = tested on: SK-MEL-5 melanoma
SK-OV-3 ovarian = tested on: SK-OV-3 ovarian
SN12C renal = tested on: SN12C renal
SNB-19 CNS = tested on: SNB-19 CNS
SNB-75 CNS = tested on: SNB-75 CNS
SR leukemia = tested on: SR leukemia
SW-620 colon = tested on: SW-620 colon
T-47D breast = tested on: T-47D breast
TK-10 renal = tested on: TK-10 renal
U251 CNS = tested on: U251 CNS
UACC-257 melanoma = tested on: UACC-257 melanoma
UACC-62 melanoma = tested on: UACC-62 melanoma
UO-31 renal = tested on: UO-31 renal
BT-549 breast = tested on: BT-549 breast
HS 578T breast = tested on: HS 578T breast
RPMI-8226 leukemia = tested on: RPMI-8226 leukemia
SK-MEL-2 melanoma = tested on: SK-MEL-2 melanoma

For `CCOC(=O)c1c(-c2ccc(OC)cc2)c(C#N)c(=S)n(C2OC(COC(C)=O)C(OC(C)=O)C(OC(C)=O)C2OC(C)=O)c1C` (stereo unspecified), the TGI (786-0 renal) was over 100000 nM, the TGI (A498 renal) was over 100 µM and the TGI (A549 NSCLC) was over 100000 nM. It also gave a TGI (ACHN renal) of over 100000 nM, a TGI (CAKI-1 renal) of over 100000 nM and a TGI (CCRF-CEM leukemia) of over 100000 nM. The TGI (COLO 205 colon) was over 100000 nM, the TGI (DU-145 prostate) was over 100 µM and the TGI (EKVX NSCLC) was over 100 µM. For the same compound, the TGI (HCC-2998 colon) was over 100000 nM, the TGI (HCT-116 colon) was over 100000 nM and the TGI (HCT-15 colon) was over 100000 nM. For the same compound, the TGI (HL-60(TB) leukemia) was over 100000 nM, the TGI (HOP-62 NSCLC) was over 100 µM and the TGI (HOP-92 NSCLC) was 83.4 µM. For the same compound, the TGI (HT29 colon) was over 100000 nM, the TGI (IGROV1 ovarian) was over 100000 nM and the TGI (K-562 leukemia) was over 100000 nM. For the same compound, the TGI (KM12 colon) was over 100 µM, the TGI (LOX IMVI melanoma) was over 100000 nM and the TGI (M14 melanoma) was over 100000 nM. The TGI (MALME-3M melanoma) was over 100000 nM, the TGI (MCF7 breast) was over 100000 nM and the TGI (MDA-MB-231 breast) was over 100000 nM. For the same compound, the TGI (MDA-MB-435) was over 100000 nM, the TGI (MDA-N) was over 100 µM and the TGI (MOLT-4 leukemia) was over 100000 nM. For the same compound, the TGI (NCI-H226 lung) was over 100 µM, the TGI (NCI-H23 lung) was over 100 µM and the TGI (NCI-H460 lung) was over 100000 nM. The TGI (NCI-H522 lung) was over 100000 nM, the TGI (NCI/ADR-RES ovarian) was over 100 µM and the TGI (OVCAR-3 ovarian) was over 100000 nM. For the same compound, the TGI (OVCAR-4 ovarian) was 92.2 µM, the TGI (OVCAR-5 ovarian) was over 100 µM and the TGI (OVCAR-8 ovarian) was over 100 µM. It also gave a TGI (PC-3 prostate) of over 100 µM, a TGI (RXF 393 renal) of over 100 µM and a TGI (SF-268 CNS) of over 100000 nM. The TGI (SF-295 CNS) was over 100 µM, the TGI (SF-539 CNS) was over 100000 nM and the TGI (SK-MEL-28 melanoma) was over 100000 nM. For the same compound, the TGI (SK-MEL-5 melanoma) was over 100 µM, the TGI (SK-OV-3 ovarian) was over 100 µM and the TGI (SN12C renal) was over 100 µM. For the same compound, the TGI (SNB-19 CNS) was over 100 µM, the TGI (SNB-75 CNS) was 91 µM and the TGI (SR leukemia) was over 100000 nM. It also gave a TGI (SW-620 colon) of over 100000 nM, a TGI (T-47D breast) of over 100 µM and a TGI (TK-10 renal) of over 100 µM. It also gave a TGI (U251 CNS) of over 100000 nM, a TGI (UACC-257 melanoma) of over 100000 nM and a TGI (UACC-62 melanoma) of over 100000 nM. It also gave a TGI (UO-31 renal) of 6.02 µM.

For `CCC(=C(c1ccc(OCCCN(C)C)cc1)c1ccc(OCCCN(C)C)cc1)c1ccc(Cl)cc1`, the GI50 (786-0 renal) was 350 nM, the TGI (786-0 renal) was 759 nM and the GI50 (A498 renal) was 1700 nM. For the same compound, the TGI (A498 renal) was 4.39 µM, the GI50 (A549 NSCLC) was 601 nM and the TGI (A549 NSCLC) was 2460 nM. For the same compound, the GI50 (ACHN renal) was 469 nM, the TGI (ACHN renal) was 1360 nM and the GI50 (BT-549 breast) was 2540 nM. For the same compound, the TGI (BT-549 breast) was 4.94 µM, the GI50 (CAKI-1 renal) was 560 nM and the TGI (CAKI-1 renal) was 2190 nM. The GI50 (CCRF-CEM leukemia) was 392 nM, the TGI (CCRF-CEM leukemia) was 1130 nM and the GI50 (COLO 205 colon) was 399 nM. The TGI (COLO 205 colon) was 1040 nM, the GI50 (DU-145 prostate) was 1010 nM and the TGI (DU-145 prostate) was 3.16 µM. The GI50 (EKVX NSCLC) was 2430 nM, the TGI (EKVX NSCLC) was 4.9 µM and the GI50 (HCC-2998 colon) was 510 nM. It also gave a TGI (HCC-2998 colon) of 1540 nM, a GI50 (HCT-116 colon) of 447 nM and a TGI (HCT-116 colon) of 1150 nM. For the same compound, the GI50 (HCT-15 colon) was 365 nM, the TGI (HCT-15 colon) was 864 nM and the GI50 (HL-60(TB) leukemia) was 372 nM. The TGI (HL-60(TB) leukemia) was 941 nM, the GI50 (HOP-62 NSCLC) was 2310 nM and the TGI (HOP-62 NSCLC) was 5.1 µM. For the same compound, the GI50 (HOP-92 NSCLC) was 945 nM, the TGI (HOP-92 NSCLC) was 3.42 µM and the GI50 (HS 578T breast) was 2300 nM. It also gave a TGI (HS 578T breast) of 5.35 µM, a GI50 (HT29 colon) of 395 nM and a TGI (HT29 colon) of 966 nM. For the same compound, the GI50 (IGROV1 ovarian) was 429 nM, the TGI (IGROV1 ovarian) was 1150 nM and the GI50 (K-562 leukemia) was 324 nM. For the same compound, the TGI (K-562 leukemia) was 780 nM, the GI50 (KM12 colon) was 1260 nM and the TGI (KM12 colon) was 3.43 µM. The GI50 (LOX IMVI melanoma) was 287 nM, the TGI (LOX IMVI melanoma) was 541 nM and the GI50 (M14 melanoma) was 302 nM. For the same compound, the TGI (M14 melanoma) was 577 nM, the GI50 (MALME-3M melanoma) was 360 nM and the TGI (MALME-3M melanoma) was 973 nM. For the same compound, the GI50 (MCF7 breast) was 216 nM, the TGI (MCF7 breast) was 524 nM and the GI50 (MDA-MB-231 breast) was 413 nM. For the same compound, the TGI (MDA-MB-231 breast) was 1070 nM, the GI50 (MDA-MB-435) was 292 nM and the TGI (MDA-MB-435) was 556 nM. It also gave a GI50 (MOLT-4 leukemia) of 379 nM, a TGI (MOLT-4 leukemia) of 948 nM and a GI50 (NCI-H226 lung) of 2650 nM. It also gave a TGI (NCI-H226 lung) of 5.57 µM, a GI50 (NCI-H23 lung) of 2500 nM and a TGI (NCI-H23 lung) of 4.98 µM. For the same compound, the GI50 (NCI-H460 lung) was 457 nM, the TGI (NCI-H460 lung) was 1230 nM and the GI50 (NCI-H522 lung) was 480 nM. It also gave a TGI (NCI-H522 lung) of 1690 nM, a GI50 (NCI/ADR-RES ovarian) of 1950 nM and a TGI (NCI/ADR-RES ovarian) of 4.14 µM. The GI50 (OVCAR-3 ovarian) was 429 nM, the TGI (OVCAR-3 ovarian) was 1080 nM and the GI50 (OVCAR-4 ovarian) was 922 nM. It also gave a TGI (OVCAR-4 ovarian) of 2.41 µM, a GI50 (OVCAR-5 ovarian) of 2480 nM and a TGI (OVCAR-5 ovarian) of 4.8 µM. It also gave a GI50 (OVCAR-8 ovarian) of 933 nM, a TGI (OVCAR-8 ovarian) of 3.37 µM and a GI50 (PC-3 prostate) of 1090 nM. For the same compound, the TGI (PC-3 prostate) was 3.39 µM, the GI50 (RPMI-8226 leukemia) was 366 nM and the TGI (RPMI-8226 leukemia) was 871 nM. For the same compound, the GI50 (RXF 393 renal) was 977 nM, the TGI (RXF 393 renal) was 3.4 µM and the GI50 (SF-268 CNS) was 1040 nM. It also gave a TGI (SF-268 CNS) of 2720 nM, a GI50 (SF-295 CNS) of 2350 nM and a TGI (SF-295 CNS) of 4.61 µM. For the same compound, the GI50 (SF-539 CNS) was 301 nM, the TGI (SF-539 CNS) was 604 nM and the GI50 (SK-MEL-2 melanoma) was 2630 nM. The TGI (SK-MEL-2 melanoma) was 5.37 µM, the GI50 (SK-MEL-28 melanoma) was 324 nM and the TGI (SK-MEL-28 melanoma) was 652 nM. It also gave a GI50 (SK-MEL-5 melanoma) of 2020 nM, a TGI (SK-MEL-5 melanoma) of 4.37 µM and a GI50 (SK-OV-3 ovarian) of 2810 nM. For the same compound, the TGI (SK-OV-3 ovarian) was 5.36 µM, the GI50 (SN12C renal) was 2180 nM and the TGI (SN12C renal) was 4.55 µM. The GI50 (SNB-19 CNS) was 921 nM, the TGI (SNB-19 CNS) was 3.05 µM and the GI50 (SNB-75 CNS) was 1560 nM. The TGI (SNB-75 CNS) was 3.89 µM, the GI50 (SR leukemia) was 288 nM and the TGI (SR leukemia) was 716 nM. It also gave a GI50 (SW-620 colon) of 314 nM, a TGI (SW-620 colon) of 648 nM and a GI50 (T-47D breast) of 860 nM. The TGI (T-47D breast) was 3.16 µM, the GI50 (TK-10 renal) was 3.26 µM and the TGI (TK-10 renal) was 6.01 µM. For the same compound, the GI50 (U251 CNS) was 419 nM, the TGI (U251 CNS) was 1100 nM and the GI50 (UACC-257 melanoma) was 883 nM. The TGI (UACC-257 melanoma) was 2240 nM, the GI50 (UACC-62 melanoma) was 345 nM and the TGI (UACC-62 melanoma) was 782 nM. The GI50 (UO-31 renal) was 269 nM and the TGI (UO-31 renal) was 0.58 µM.
